Assay results: patent US20250289850A1, “NOVEL ANTIMICROBIAL PEPTIDES AND METHODS OF USE THEREOF” (QATAR UNIVERSITY, priority 2024, published 2025)
Converted amounts (≈) assume the structure as drawn. Read-outs that look alike come from different tables or passages of the source. Where a SMILES comes first, the peptide text is derived from it.

Legend:
human fibroblast cells = test: Genotoxicity, oxiselect comet assay; format: cell-based
Protocol: The genotoxicity effect of the selected AMP was also investigated. In this part, human fibroblast cells were cultured in 24-well plates at a seeding density of 100,000 cells/well; cells were then allowed to adhere and proliferate overnight (16-18 hours). The following day, cells were treated with the AMP (1000 and 2000 μg/ml; negative and positive controls were included in this part, and cells were treated with DMEM and H2O2, respectively. After which, cells were incubated at humidified conditions for 24 hours. Following that, the genotoxicity effect of the AMP was measured using oxiselect comet assay (Abcam, UK) and following the manufacturer's instructions. Images were taken using OLYMPUS BX62, at magnification 40×, attached to an OLYMPUS DP73 digital camera. Image analysis was done using the ImageJ application (OpenComet plugin).

MRSA biofilm = format: cell-based, Methicillin-Resistant Staphylococcus Aureus
Protocol: The first step in creating the biofilm was the selection of borosilicate glass beads 3-4 mm in diameter (ISOLAB Laborgeräte GmbH, Singapore). Then, the selected beads were soaked and cleaned with a soap solution; after that, they were washed with ddH2O, soaked in 80% ethanol for 24 hrs, and then washed properly using sterile water. Bacteria were then grown on these beads to create the biofilm by taking 20 μL of 0.5 McFarland from the bacterial strains (either MRSA or E. Coli), adding it to 200 μL of nutrient broth in 96-well flat-bottom plates, and placing one bead in cach well. 96-well plates were then sealed tightly with a parafilm and placed in an acrobic shaker (Innova 44 Incubator Shaker) for 72 hours at 37° C. at a speed of 100 rpm. Every 24 hours, 200 μL of fresh media was added to replace the consumed media. The beads were then placed in an Eppendorf tube containing 200 μL of nutrient broth and vortexed for 1 min to loosen any attached bacteria. This step was repeated after 24, 48, and 72 hours to observe the density of the biofilm formed on the beads. Then, 100 μL of the solution was serially diluted over ten-fold serial dilutions, and 20 μL of the serial dilution was spread onto fresh nutrient agar media and incubated at 37° C. for 18 hours. Biofilm colonies were then counted. Generated biofilms were used to investigate the selected AMP's ability to inhibit the MRSA and E. coli biofilms.
(§1) The antibiofilm activity of AMP on 72 hours biofilm cultures was tested by treating the biofilm beads with 2000, 1000, 500, 250, 125, and 62.5 μg/mL concentrations of the selected AMP in 96-well plates. Plates were then tightly sealed with a parafilm and placed in an acrobic shaker (Innova 44 Incubator Shaker) for 72 hours at 37° C. at a speed of 100 rpm. The antibiofilm activity of the AMP was determined after observing the wells that contained a transparent solution with the naked eye. Subsequently, the antibiofilm activity of the selected AMP was determined using SEM, as described below. […]

[1] = test system: Human Fibroblasts (ATCC PCS201010); format: cell-based
Protocol: The cytotoxicity and genotoxicity in vitro effect of the AMP was investigated. Human Fibroblasts (ATCC PCS201010, ThermoFischer Scientific, USA) and cells were seeded at a seeding density of 10,000 Cells/well in 96-well plates using Dulbecco's Modified Eagle Medium (DMEM, Gibco, USA). Media was supplemented with 10% Fetal bovine serum (FBS, Gibco, USA), and penicillin streptomycin (Gibco, USA). Cells were incubated overnight (16-18 hrs) at humidified conditions (5% CO2, 37° C.). Adherent cells were then treated with different concentrations of the AMP (7.8125, 15.625, 62.5, 125, 250, 500, 1000, 2000 μg/ml), and cells were then incubated at humidified conditions for 24 hrs. Then conditioned media was collected at different time points 0, 0.5, 1, 3, 6, 24 hours) and used for measuring Lactate Dehydrogenase (LDH, Thermofischer, USA) following manufacturers' instructions. Adherent cells were used to measure cell viability using AlamarBlue (Invitrogen, USA) following manufacturers' instructions at the following time points 0, 0.5, 1, 3, 6, and 24 hours.

E. coli (ATCC-29522) = format: cell-based, Escherichia coli
Protocol: (§2) MRSA and E. coli strains were acquired from the microbiology bacterial culture stock at the Biomedical Research Centre (BRC), Qatar University. MRSA (ATCC-33591) and E. coli (ATCC-29522) strains were cultivated overnight on nutrient agar (Remel, ThermoFisher Scientific, Lenexa, KS, USA), followed by a 24 hour period of incubation at 37° C. and adjustment to 0.5 MacFarland Standard, which was measured using DensiCHEK PLUS (bioMérieux, France).
(§3) Minimal Inhibitory Concentration (MIC) of AMP MRSA and E. coli was determined as follows. […] serial dilutions of AMP starting from 2000 μg/ml of 160 μL Mueller Hinton broth (MHB, Lioflchem, Roseto degli Abruzzi, Italy) were transferred to the wells (100 μl each) in a 96-well flat-bottom plate (Microtesttm 96 tissue culture plate, Franklin Lakes, NJ, USA) to get concentrations of 2000, 1000, 500, 250, 125, 62.5, 31.25, 15.6, and 7.8 μg/mL. Then, 10 μL of 0.5 MacFarland for each type (MSRA and/or E. coli) of the measured strain was added to each well. To assure sterilization, the 96-well plate contained wells with MHB control, MHB with AMP treatment control, and controls for the bacterial strain mixed with MHB to guarantee bacterial growth. 96-well plates were then sealed tightly with a parafilm and placed in an aerobic shaker (Innova 44 Incubator Shaker) for 24 hours at 37° C. at a speed of 100 rpm. After this, the MIC of the treatment that effectively eliminated bacterial growth was determined with the naked eye following previously established procedure as described in Eltai N O et al., Antibacterial and Antibiofilm Activity of Mercaptophenol Functionalized-Gold Nanorods Against a Clinical Isolate of Methicillin-Resistant Staphylococcus aureus. […]
(§4) To determine the minimum biocidal concentration ([…]) for the AMP, 20 μL of a ten-fold serial dilution of the MIC with AMP was spread onto fresh nutrient agar media and incubated at 37° C. for around 18 hrs. Bacterial colonies were counted and compared to those grown on control nutrient agar, which had 20 μL of a solution composed only of bacteria and MHB.

E. coli biofilm = format: cell-based, Escherichia coli
Protocol: The first step in creating the biofilm was the selection of borosilicate glass beads 3-4 mm in diameter (ISOLAB Laborgeräte GmbH, Singapore). Then, the selected beads were soaked and cleaned with a soap solution; after that, they were washed with ddH2O, soaked in 80% ethanol for 24 hrs, and then washed properly using sterile water. Bacteria were then grown on these beads to create the biofilm by taking 20 μL of 0.5 McFarland from the bacterial strains (either MRSA or E. Coli), adding it to 200 μL of nutrient broth in 96-well flat-bottom plates, and placing one bead in cach well. 96-well plates were then sealed tightly with a parafilm and placed in an acrobic shaker (Innova 44 Incubator Shaker) for 72 hours at 37° C. at a speed of 100 rpm. Every 24 hours, 200 μL of fresh media was added to replace the consumed media. […] Biofilm colonies were then counted. […]
as §1, with “Plates were then tightly sealed with a parafilm and placed in an acrobic shaker (Innova 44 Incubator Shaker) for 72 hours at 37° C. at a speed of 100 rpm.” left out

MRSA (ATCC-33591) = format: cell-based, Methicillin-Resistant Staphylococcus Aureus
Protocol: as §2, §3, §4

In the case of `OO` [H2O2, reference compound], the “comet tail / DNA migration” value (human fibroblast cells; human fibroblasts, AMP 2000, 500 μg/ml (figure legend), positive control H2O2) was “extensive DNA migration”.

`CC(C)C[C@H](NC(=O)[C@H](CCCNC(=N)N)NC(=O)[C@H](CCCNC(=N)N)NC(=O)[C@H](CCCNC(=N)N)NC(=O)[C@H](Cc1ccccc1)NC(=O)CNC(=O)[C@H](CCCNC(=N)N)NC(=O)[C@H](CS)NC(=O)[C@H](CCCNC(=N)N)NC(=O)CNC(=O)CNC(=O)[C@H](CS)NC(=O)[C@H](Cc1ccccc1)NC(=O)[C@H](C)N)C(=O)N[C@@H](Cc1ccccc1)C(=O)N[C@@H](CS)C(=O)N[C@H](C(=O)N[C@@H](CCCCN)C(=O)N[C@@H](C)C(=O)N[C@@H](CS)C(=O)O)[C@@H](C)O` [AMP] (H-AFCGGRCRGFRRRLFCTKAC-OH; N-terminus and C-terminus assumed) was tested, and the antibiofilm effect (MRSA biofilm; MRSA biofilm, 2000, 1000 μg/ml AMP) was “eliminate the MRSA biofilm”, the antibiofilm effect (MRSA biofilm; MRSA biofilm, highest dose 2000 μg/ml AMP) was “totally inhibiting the MRSA biofilm growth” and the MIC/MBC in biofilm (MRSA biofilm; biofilm, 72 h) was 1000 µg/mL (≈ 433 µM). The “genotoxicity (tail moment)” value (human fibroblast cells) was “no significant effect”, the “cellular cytotoxicity (LDH)” value [1] was “no cellular cytotoxicity was detected” and the MBC (E. coli (ATCC-29522); ATCC-29522, 24 h) was 1000 µg/mL (≈ 433 µM). The antibacterial effect (E. coli (ATCC-29522); E. coli, 2000, 1000 μg/ml AMP, 24 hours) was “biocidal effect”, the “minimum inhibitory (MIC)” value (E. coli (ATCC-29522); E. coli, 24 hours, 37° C., read with the naked eye) was 500 µg/mL and the antibiofilm effect (E. coli biofilm; E. coli biofilm, only the highest concentration 2000 μg/ml AMP) was “inhibit the E. coli biofilm”. The MIC/MBC in biofilm (E. coli biofilm; biofilm, 72 h) was 2000 µg/mL (≈ 866 µM), the MBC (MRSA (ATCC-33591); ATCC-33591, 24 h) was 1000 µg/mL (≈ 433 µM) and the antibacterial effect (MRSA (ATCC-33591); MRSA, 2000, 1000 μg/ml AMP, 24 hours) was “biocidal effect”. The “minimum inhibitory (MIC)” value (MRSA (ATCC-33591); MRSA, 24 hours, 37° C., read with the naked eye) was 500 µg/mL.
